Measured values from patent publication US20080113900A1, “Pharmaceutical compositions and therapeutic applications for the use of a synthetic vitamin B12 derivative, glutathionylcobalamin” (priority 2006, published 2008).
Where “and” joins values, the source holds several entries; their conditions need not be identical. Equal entries are not always repeated.

How the values were obtained:
[1] = tested on: Hsp32; experiment: Hsp32 gene expression (RT-PCR, densitometry); assay type: cell-based, human
Procedure: (§1) Cells were plated into 6-, 12-, or 24-well cell culture clusters, at 2×10^3, 2×10^5, or 1×10^5 cells per well and incubated until 90% confluent. Treatments were applied as above.
(§2) Following incubation, cells were subjected to mRNA extraction followed by cDNA synthesis for each sample under test. Polymerase chain reaction cDNA templates were prepared for simplex PCR protocol. PCR products were then visualized using a UV Transilluminator and images captured using a Kodak ID gel imaging system. Densitometry and statistical analysis was then performed on each gene expression band image using PSP® v 10.0 running under Windows XP®.
(§3) mRNA extraction was performed using the Quickprep micro mRNA Purification Kit. Following incubation of cells post-treatment, the media was removed from the cells, adherent cells were re-suspended in 0.4 ml extraction buffer and 0.8 ml elution buffer at 65° C. was added.
A reaction mixture was prepared in individual microcentrifuge tubes containing 2 cDNA synthesis beads, 32 μl of the mRNA solution and 1 μl of pd(N)6. This mixture was incubated at 37° C. in a water bath for 60 minutes. After incubation, 27 μl of RNase-free DEPC treated water was added to each tube to make a total volume 60 μl. cDNA samples were prepared in duplicate. Sample 1 was used immediately in RT-PCR protocol. Sample 2 was prepared for qPCR protocol by the addition of 150 μl of 95% ice-cold ethanol and stored at −20° C.
Microcentrifuge tubes from puReTaq™Ready-To-Go™ PCR Beads containing one PCR bead were labeled for each sample required. Added to the PCR bead were 17 μl of RNase-free DEPC treated water, 1 μl sense primer, 1 μl anti-sense primer and 5 μl of the cDNA solution. RT-PCR conditions were as follows: Hsp70 and β-actin, pre-treatment step, 94° C. for 1 minute, followed by denaturing at 92° C. for 1 minute, annealing at 60° C. for 1 minute and extension at 72° C. for 1 minute. Total cycles, 30, post-treatment was then carried out at 72° C. for 10 minutes. For Hsp32, pre-treatment step, 95° C. for 2 minutes, followed by denaturing at 94° C. for 30 seconds, annealing at 58° C. for 1 minute and extension at 72° C. for 1 minute. Total cycles 45, post treatment was then carried out at 72° C. for 10 minutes. Following RT-PCR, samples were stored at −20° C.
Gels were visualised on a UV Transilluminator. Photographs were stored using a Kodak Digital camera system fitted with a UV filter set connected to a PC. Images were then transferred to the Kodak ID gel imaging system. Densitometry was performed on each gene expression band using PSP™ v10 running under Windows XP®.
Experiments were conducted using Hsp32 and Hsp 70 gene expression as the basis for study. […] The densitometric data are presented as means ±SEM of n=3 separate experiments. *p<0.05 or **p<0.01, treatment vs. control.

[2] = tested on: SK-HEP-1 cells; experiment: Effect of homocysteine and H2O2 on endothelial cell viability (MTS assay); settings: for Normalized Data Log 2, Mean / Normalized Data Log 10, Mean: Hcy alone, n = 6; for Cell viability (MTS assay): SK-HEP-1, 2 hours, n = 6 replicates
[3] = tested on: SK-HEP-1 cells; experiment: Protection of endothelial cells from homocysteine-induced cell death (MTS assay); assay type: cell-based, human
Procedure: The effect of a constant concentration of NACCbl and GSCbl to protect cells against variable concentrations of homocysteine was assessed. […] Cell viability was determined by MTS® assay. Data shown in FIG. 4 are representative of means ±SE of 6 independent samples. FIG. 4 illustrates that NACCbl (▪) and GSCbl (▴) protect endothelial cells from the effect of homocysteine. […] Cell viability was determined by MTS® assay. […] There was a decrease in protection as homocysteine concentration increased, but there was still ˜60% survival at 50 μM homocysteine.
The data was normalized (log 2 and log 10) as shown in FIGS. 16 and 17 and Tables 16 and 17, respectively, below.

[4] = tested on: SK-HEP-1 cells; experiment: NACCbl protection from homocysteine with inhibition of Hsp32/Hsp70 by Sn(IX) protoporphyrin, quercitin or siRNA (MTS assay); settings: listed as Hcy
[5] = in vitro; settings: human, SK-HEP-1 cells
[6] = tested on: Hsp70; experiment: Hsp70 gene expression (RT-PCR, densitometry); settings: SK-HEP-1, 30 μM, 2 hr
Procedure: as §1, §2, §3
A reaction mixture was prepared in individual microcentrifuge tubes containing 2 cDNA synthesis beads, 32 μl of the mRNA solution and 1 μl of pd(N)6. This mixture was incubated at 37° C. in a water bath for 60 minutes. After incubation, 27 μl of RNase-free DEPC treated water was added to each tube to make a total volume 60 μl. cDNA samples were prepared in duplicate. Sample 1 was used immediately in RT-PCR protocol.
Microcentrifuge tubes from puReTaq™Ready-To-Go™ PCR Beads containing one PCR bead were labeled for each sample required. Added to the PCR bead were 17 μl of RNase-free DEPC treated water, 1 μl sense primer, 1 μl anti-sense primer and 5 μl of the cDNA solution. RT-PCR conditions were as follows: Hsp70 and β-actin, pre-treatment step, 94° C. for 1 minute, followed by denaturing at 92° C. for 1 minute, annealing at 60° C. for 1 minute and extension at 72° C. for 1 minute. Total cycles, 30, post-treatment was then carried out at 72° C. for 10 minutes. For Hsp32, pre-treatment step, 95° C. for 2 minutes, followed by denaturing at 94° C. for 30 seconds, annealing at 58° C. for 1 minute and extension at 72° C. for 1 minute. […]

[7] = Decomposition in PBS at 37° C. monitored by UV/Vis spectrophotometry; assay type: physicochemical
Procedure: The decomposition of GSCbl, NACCbl, and HcyCbl in PBS at 37° C. was monitored by UV/Vis spectrophotometry.

NC(CCS)C(=O)O (racemic) [Homocysteine, DL-Homocysteine]
Hsp32 gene expression ([1]; SK-HEP-1, 30 μM, 2 hr): increase in expression | Hsp32 gene expression ([1]; SK-HEP-1, Sn (IX) protoporphyrin 25 μM, Quercitin 15 μM): induced | Normalized Data Log 2, Mean ([2]; conc. 1.780): 59.351 | Normalized Data Log 10, Mean ([2]; conc. 1.780): 89.537 | Normalized Data Log 2, Mean ([2]; conc. 3.125): 48.077 | Normalized Data Log 10, Mean ([2]; conc. 3.125): 73.700 | Normalized Data Log 2, Mean ([2]; conc. 6.250): 34.347 | Normalized Data Log 10, Mean ([2]; conc. 6.250): 54.413 | Normalized Data Log 2, Mean ([2]; conc. 12.500): 32.253 | Normalized Data Log 10, Mean ([2]; conc. 12.500): 51.471 | Normalized Data Log 2, Mean ([2]; conc. 25.000): 19.208 | Normalized Data Log 10, Mean ([2]; conc. 25.000): 33.145 | Normalized Data Log 2, Mean ([2]; conc. 50.000): 14.935 | Normalized Data Log 10, Mean ([2]; conc. 50.000): 27.142 | Normalized Data Log 2, Mean ([2]; conc. 100.000): 6.164 | Normalized Data Log 10, Mean ([2]; conc. 100.000): 14.820 | Normalized Data Log 2, Mean ([2]; conc. 200.000): −0.033 | Normalized Data Log 10, Mean ([2]; conc. 200.000): 6.115 | Concentration achieving greater than 90% death (<10% survival) ([2]; SK-HEP-1, 2 hours): 25 µM | Concentration that killed cells ([2]; SK-HEP-1, 2 hours, p<0.001): ≥ 5 µM | Cell viability (MTS assay) ([2]; 0.781 μM): 98.11 and 102.5676 and 102.4576 and 98.72 and 98.39 | Cell viability (MTS assay) ([2]; 1.562 μM): 100.5319 and 102.4026 and 85.18 and 81.33 and 81.6 and 98.83 | Cell viability (MTS assay) ([2]; 3.125 μM): 91.62 and 82.82 and 78.3 and 80.94 and 91.78 | Cell viability (MTS assay) ([2]; 6.25 μM): 62.02 and 28.4 and 38.2485 and 48.6474 and 67.63 and 55.0298 | Cell viability (MTS assay) ([2]; 25 μM): 1.495 and 0.5044 and 0.1192 | Cell viability (MTS assay) ([2]; 50 μM): 0.2843 (2×) and 0.9445 and 1.44 and 3.255 | Absorbance at 490 nm, Mean ([3]; SK-HEP-1, NACCbl 30 μM, NAC 75 μM, Hcy conc. 200.000, n = 6, label Hcy = Hcy alone): 0.360 | Mean (FIG. 14, protection of SK-HEP-1 cells from Hcy) ([3]; [Hcy] 30 μM, [NAC] = 45 μM, [NACCbl] = 12.5 μM, [Folate] = 25 μM where named in the label, label Hcy/HCy = Hcy alone): 0.616 | Absorbance at 490 nm, Mean ([3]; as E80, Hcy conc. 1.780): 1.863 | Absorbance at 490 nm, Mean ([3]; as E80, Hcy conc. 3.125): 1.578 | Absorbance at 490 nm, Mean ([3]; as E80, Hcy conc. 6.250): 1.230 | Absorbance at 490 nm, Mean ([3]; as E80, Hcy conc. 12.500): 1.177 | Absorbance at 490 nm, Mean ([3]; as E80, Hcy conc. 25.000): 0.847 | Absorbance at 490 nm, Mean ([3]; as E80, Hcy conc. 50.000): 0.739 | Absorbance at 490 nm, Mean ([3]; as E80, Hcy conc. 100.000): 0.517 | Cell viability by MTS assay (FIG. 11), replicates 1-6 ([4]; SK-HEP-1, NACCbl 30 μM two hours with or without Sn(IX)PP/quercetin, then Hcy conc. 200 two hours, label Hcy = Hcy alone): 0.33 and 0.312 and 0.39 and 0.302 and 0.421 and 0.406 | Cell viability by MTS assay (FIG. 11), replicates 1-6 ([4]; as E45, Hcy conc. 1.78): 1.746 and 1.932 and 1.95 and 1.83 and 1.837 and 1.884 | Cell viability by MTS assay (FIG. 11), replicates 1-6 ([4]; as E45, Hcy conc. 3.125): 1.543 and 1.487 and 1.656 and 1.63 and 1.593 and 1.558 | Cell viability by MTS assay (FIG. 11), replicates 1-6 ([4]; as E45, Hcy conc. 6.25): 1.304 and 1.406 and 1.227 and 1.176 and 1.15 and 1.119 | Cell viability by MTS assay (FIG. 11), replicates 1-6 ([4]; as E45, Hcy conc. 12.5): 1.104 and 1.001 and 1.042 and 1.114 and 1.324 and 1.479 | Cell viability by MTS assay (FIG. 11), replicates 1-6 ([4]; as E45, Hcy conc. 25): 0.692 and 0.956 and 0.876 and 0.882 and 0.937 and 0.74 | Cell viability by MTS assay (FIG. 11), replicates 1-6 ([4]; as E45, Hcy conc. 50): 0.678 and 0.881 and 0.602 and 0.77 and 0.724 and 0.779 | Cell viability by MTS assay (FIG. 11), replicates 1-6 ([4]; as E45, Hcy conc. 100): 0.654 and 0.449 and 0.466 and 0.501 and 0.522 and 0.51 | viability at 2 h, 0.781 µM [5]: 99.8% | viability at 2 h, 3.125 µM [5]: 96% | Hsp70 gene expression [6]: increase in expression

CC1=C2N=C(C=C3N=C(C(C)=C4[N-]C(C(CC(N)=O)C4(C)CCC(=O)NCC(C)OP(=O)([O-])OC4C(CO)OC(n5cnc6cc(C)c(C)cc65)C4O)C4(C)N=C1C(CCC(N)=O)C4(C)CC(N)=O)C(CCC(N)=O)C3(C)C)C(CCC(N)=O)C2(C)CC(N)=O.NC(CC[S-])C(=O)O.[Co+3] [HcyCbl, D,L-homocysteinyl-cobalamin]
Kobs [7]: 0.0018 min⁻¹ | t1/2 [7]: 6.6 h
